Values quoted from earlier work, collected in patent US20230416219A1, “R-MDMA CRYSTAL FORMS” (Mind Medicine, Inc., priority 2022, published 2023).

How the values were obtained:
[1] = in vivo
[2] = test system: parkinsonian animal model
5-HT2A receptors = 5-HT2A receptors (Homo sapiens, UniProt P28223)
DAT = DAT (Homo sapiens, UniProt Q01959)
SERT = SERT (Homo sapiens, UniProt P31645)
SERT, sequence (P31645 whole entry, species assumed): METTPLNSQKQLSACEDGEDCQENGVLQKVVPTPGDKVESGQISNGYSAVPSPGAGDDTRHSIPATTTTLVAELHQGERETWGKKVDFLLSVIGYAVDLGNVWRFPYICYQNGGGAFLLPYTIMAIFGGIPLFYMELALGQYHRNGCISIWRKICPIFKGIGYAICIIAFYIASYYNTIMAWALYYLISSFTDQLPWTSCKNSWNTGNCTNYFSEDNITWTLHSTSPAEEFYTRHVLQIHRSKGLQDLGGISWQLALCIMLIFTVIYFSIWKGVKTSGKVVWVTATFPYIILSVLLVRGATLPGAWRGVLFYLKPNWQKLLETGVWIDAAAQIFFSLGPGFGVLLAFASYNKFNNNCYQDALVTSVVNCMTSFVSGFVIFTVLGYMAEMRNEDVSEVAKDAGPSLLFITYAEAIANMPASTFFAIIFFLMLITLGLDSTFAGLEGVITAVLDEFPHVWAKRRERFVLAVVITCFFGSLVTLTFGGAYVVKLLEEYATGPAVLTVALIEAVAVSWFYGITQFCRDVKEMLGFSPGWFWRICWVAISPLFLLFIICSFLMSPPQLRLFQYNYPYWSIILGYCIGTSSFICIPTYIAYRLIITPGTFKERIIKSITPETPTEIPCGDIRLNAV

DAT, sequence (Q01959 whole entry, species assumed): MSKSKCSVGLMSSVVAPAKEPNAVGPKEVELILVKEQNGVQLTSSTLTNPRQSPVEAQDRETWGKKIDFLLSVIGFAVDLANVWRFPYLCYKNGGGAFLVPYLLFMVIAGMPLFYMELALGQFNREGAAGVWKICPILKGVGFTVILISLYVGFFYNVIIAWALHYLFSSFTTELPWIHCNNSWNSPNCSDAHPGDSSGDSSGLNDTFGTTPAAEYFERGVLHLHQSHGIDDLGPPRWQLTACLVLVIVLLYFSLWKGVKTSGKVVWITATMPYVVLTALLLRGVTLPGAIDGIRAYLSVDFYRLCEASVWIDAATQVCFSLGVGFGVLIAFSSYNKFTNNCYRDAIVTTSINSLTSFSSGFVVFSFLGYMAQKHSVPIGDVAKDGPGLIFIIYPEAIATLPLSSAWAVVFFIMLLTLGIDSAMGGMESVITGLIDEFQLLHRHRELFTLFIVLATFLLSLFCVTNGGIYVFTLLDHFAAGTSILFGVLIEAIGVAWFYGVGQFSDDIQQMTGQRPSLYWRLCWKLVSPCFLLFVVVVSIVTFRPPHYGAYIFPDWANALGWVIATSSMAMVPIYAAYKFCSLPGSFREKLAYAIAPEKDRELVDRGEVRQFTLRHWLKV
5-HT2A receptors, sequence (P28223 whole entry): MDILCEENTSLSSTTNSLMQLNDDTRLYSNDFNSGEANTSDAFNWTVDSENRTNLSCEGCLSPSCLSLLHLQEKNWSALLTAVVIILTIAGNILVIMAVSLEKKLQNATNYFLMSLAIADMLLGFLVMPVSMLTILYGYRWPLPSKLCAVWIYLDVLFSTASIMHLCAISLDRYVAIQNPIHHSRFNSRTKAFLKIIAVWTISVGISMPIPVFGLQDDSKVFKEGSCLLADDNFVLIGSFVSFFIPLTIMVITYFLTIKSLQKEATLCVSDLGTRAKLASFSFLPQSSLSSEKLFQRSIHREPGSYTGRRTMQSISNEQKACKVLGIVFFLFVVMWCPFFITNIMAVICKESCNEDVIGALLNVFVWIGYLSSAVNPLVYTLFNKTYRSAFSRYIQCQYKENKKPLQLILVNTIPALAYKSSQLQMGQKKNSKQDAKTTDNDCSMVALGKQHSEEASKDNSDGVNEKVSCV

SMILES	hyperthermia [1]	duration of good ON-time [2]	severity of peak-dose dyskinesia [2]	selectivity for 5-HT2A receptors (5-HT2A receptors)	total duration of ON-time [2]	affinity for DAT (DAT)	affinity for SERT (SERT)
CN[C@H](C)Cc1ccc2c(c1)OCO2 [R-MDMA]	does not produce hyperthermia	increased	decreased	selective compound for 5-HT2A receptors	–	–	–
CN[C@@H](C)Cc1ccc2c(c1)OCO2 [S-MDMA]	–	–	exacerbated	–	extended	moderate affinity	high affinity
